Results on one compound are retold here after patent publication US20130108717A1, “COMPOSITIONS FOR THE TREATMENT OF GYNAECOLOGICAL DISORDERS” (INDENA S.P.A., priority 2010, published 2013).

Common to all, as to assay type: cell-based
For one assay, the system named is Gardnerella vaginalis. Description: MIC, broth dilution (CLSI M11-A4), vaginally isolated strains. On the technique in general: Dilution methods test growth across graded concentrations, often in twofold steps.
For the next assay, the system named is Trichomonas vaginalis. In words: MIC on Diamond's medium, loss of motility, vaginally isolated strains.
Another assay relates to Candida albicans. In words: MIC, microdilution in broth (CLSI M27-A), vaginally isolated strains.
Assay [1] relates to Methicillin-resistant Staphylococcus aureus. Description: MIC, micro-dilution in culture broth (CLSI M 7-A5), vaginally isolated strains.

Structures are written as SMILES. Converted amounts (≈) assume the structure as drawn. Bounds are passed on as bounds.

Turning to `CC1(C)[C@@H](O)CC[C@]2(C)[C@H]3C(=O)C=C4[C@@H]5C[C@@](C)(C(=O)O)CC[C@]5(C)CC[C@@]4(C)[C@]3(C)CC[C@@H]12` [18-beta-glycyrrhetic acid, 18β-glycyrrhetic acid], the MIC worked out at 667 µg/mL (≈ 1420 µM) in the assay on Gardnerella vaginalis (Gardnerella vaginalis 1); 667 µg/mL (≈ 1420 µM) against Gardnerella vaginalis (Gardnerella vaginalis 2); 333 µg/mL (≈ 707 µM) against Gardnerella vaginalis (Gardnerella vaginalis 3); 167 µg/mL (≈ 355 µM) against Gardnerella vaginalis (Gardnerella vaginalis 4); 667 µg/mL (≈ 1420 µM) against Gardnerella vaginalis (Gardnerella vaginalis 5); 667 µg/mL (≈ 1420 µM) with Gardnerella vaginalis (Gardnerella vaginalis 6). Moreover, the MIC against Gardnerella vaginalis (Gardnerella vaginalis 7) was 167 µg/mL (≈ 355 µM); against Gardnerella vaginalis (Gardnerella vaginalis 8), 333 µg/mL (≈ 707 µM); against Gardnerella vaginalis (Gardnerella vaginalis 9), 333 µg/mL (≈ 707 µM); against Gardnerella vaginalis (Gardnerella vaginalis 10), 167 µg/mL (≈ 355 µM); in the assay on Trichomonas vaginalis (Trichomonas vaginalis 1), 150 µg/mL (≈ 319 µM); with Trichomonas vaginalis (Trichomonas vaginalis 2), 150 µg/mL (≈ 319 µM). In addition, the MIC with Trichomonas vaginalis (Trichomonas vaginalis 3) was determined as 150 µg/mL (≈ 319 µM); with Trichomonas vaginalis (Trichomonas vaginalis 4) it was 150 µg/mL (≈ 319 µM); against Candida albicans (Candida albicans 1), 667 µg/mL (≈ 1420 µM); against Candida albicans (Candida albicans 2), 667 µg/mL (≈ 1420 µM); with Candida albicans (Candida albicans 3), 667 µg/mL (≈ 1420 µM); with Candida albicans (Candida albicans 4), 667 µg/mL (≈ 1420 µM). Besides, the MIC with Candida albicans (Candida albicans 5) is 333 µg/mL (≈ 707 µM); in assay [1] (S. aureus Met R 1), over 1333 µg/mL; in assay [1] (S. aureus Met R 2), over 1333 µg/mL; in assay [1] (S. aureus Met R 3) it was 1333 µg/mL (≈ 2830 µM); in assay [1] (S. aureus Met R 4) it was 1333 µg/mL (≈ 2830 µM); in assay [1] (S. aureus Met R 5) it was over 1333 µg/mL.
